# Laboratory results published in patent US4110327A, “2,3 Diketo-piperazinocarbonylamino alkanoic acids and derivatives” (Toyama Chemical Co., Ltd., priority 1974, dated 1978).
# Assays:
# Assay type in all cases: cell-based
# [1] = test system: Escherichia coli; experiment: MIC against clinical isolates; details: unit assumed
# [2] = test system: Proteus mirabilis; experiment: MIC against clinical isolates; details: clinical isolate, unit assumed
# [3] = test system: Staphylococcus aureus; experiment: MIC against clinical isolates; details: unit assumed
# [4] = test system: Escherichia coli NIHJ; experiment: MIC against standard strain, plate method; details: unit assumed
# How it was run: (§1)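 MIC values come from the plate method on heart infusion agar at pH 7.4, with each plate receiving 10^4 cells from a 10^6 cells/ml suspension.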
# [5] = test system: Staphylococcus aureus 209p; experiment: MIC against standard strain, plate method; details: unit assumed
# How it was run: as §1
# [6] = test system: Klebsiella pneumoniae; experiment: MIC against standard strain, plate method; details: unit assumed
# How it was run: as §1
# [7] = test system: Pseudomonas aeruginosa I.F.O.; experiment: MIC against standard strain, plate method; details: unit assumed
# How it was run: as §1
# [8] = test system: Proteus vulgaris 3027; experiment: MIC against standard strain, plate method; details: Proteus vulgaris 3027, standard strain; unit assumed
# How it was run: as §1
# [9] = test system: Proteus morganii; experiment: MIC against clinical isolates; details: clinical isolate, unit assumed
# [10] = test system: Klebsiella pneumoniae; experiment: MIC against clinical isolates; details: unit assumed
# [11] = test system: Pseudomonas aeruginosa; experiment: MIC against clinical isolates; details: unit assumed
# [12] = test system: Proteus vulgaris; experiment: MIC against clinical isolates; details: clinical isolate, unit assumed
# [13] = test system: Proteus rettgeri; experiment: MIC against clinical isolates; details: clinical isolate, unit assumed
smiles,measurement,setting,value
"CN1CCN(C(=O)NC(C(=O)NC2C(=O)N3C(C(=O)O)=C(CSc4nnnn4C)CSC23)c2ccccc2)C(=O)C1=O (single isomer, unassigned) [compound 63]",MIC,[1]; clinical isolate GN 3435,3.13 µg/mL
same,MIC,[1]; clinical isolate GN 3452,12.5 µg/mL
same,MIC,[1]; clinical isolate GN 3465,25 µg/mL
same,MIC,[1]; clinical isolate GN 3481,3.13 µg/mL
same,MIC,[1]; clinical isolate GN 3611,100 µg/mL
same,MIC,[1]; clinical isolate K-1,3.13 µg/mL
same,MIC,[1]; clinical isolate K-2,6.25 µg/mL
same,MIC,[1]; clinical isolate K-3,50 µg/mL
same,MIC,[1]; clinical isolate K-4,6.25 µg/mL
same,MIC,[2],3.13 µg/mL
same,MIC,[3]; clinical isolate F-1,3.13 µg/mL
same,MIC,[3]; clinical isolate F-2,0.78 µg/mL
same,MIC,[3]; clinical isolate F-3,1.56 µg/mL
same,MIC,[3]; clinical isolate F-4,1.56 µg/mL
same,MIC,[3]; clinical isolate F-5,12.5 µg/mL
same,MIC,[3]; clinical isolate MS 8588,1.56 µg/mL
same,MIC,[3]; clinical isolate MS 8596,1.56 µg/mL
same,MIC,[3]; clinical isolate MS 8619,0.78 µg/mL
same,MIC,[3]; clinical isolate MS 8684,1.56 µg/mL
same,MIC,[3]; clinical isolate MS 8713,1.56 µg/mL
same,MIC,[4],< 0.79 µg/mL
same,MIC,[5],< 0.79 µg/mL
same,MIC,[6],< 0.79 µg/mL
same,MIC,[7],25 µg/mL
same,MIC,[8],1.57 µg/mL
same,MIC,[9],3.13 µg/mL
same,MIC,[10]; clinical isolate GN 917,3.13 µg/mL
same,MIC,[10]; clinical isolate GN 4081,6.25 µg/mL
same,MIC,[10]; clinical isolate GN 4117,6.25 µg/mL
same,MIC,[11]; clinical isolate GN 82,50 µg/mL
same,MIC,[11]; clinical isolate GN 163,25 µg/mL
same,MIC,[11]; clinical isolate GN 221,25 µg/mL
same,MIC,[11]; clinical isolate GN 244,50 µg/mL
same,MIC,[11]; clinical isolate GN 376,50 µg/mL
same,MIC,[11]; clinical isolate GN 383,25 µg/mL
same,MIC,[11]; clinical isolate GN 1035,100 µg/mL
same,MIC,[11]; clinical isolate GN 1091,50 µg/mL
same,MIC,[11]; clinical isolate GN 2565,50 µg/mL
same,MIC,[11]; clinical isolate GN 2987,25 µg/mL
same,MIC,[11]; clinical isolate S-1,100 µg/mL
same,MIC,[11]; clinical isolate S-2,100 µg/mL
same,MIC,[11]; clinical isolate S-3,100 µg/mL
same,MIC,[11]; clinical isolate S-4,100 µg/mL
same,MIC,[12],1.56 µg/mL
same,MIC,[13],3.13 µg/mL
"CC(=O)OCC1=C(C(=O)O)N2C(=O)[C@@H](NC(=O)[C@H](N)c3ccccc3)[C@H]2SC1 [Sodium Cephaloglycin, SodiumCephaloglycin, reference compound]",MIC,[1]; clinical isolate GN 3435,1.56 µg/mL
same,MIC,[1]; clinical isolate GN 3452,3.13 µg/mL
same,MIC,[1]; clinical isolate GN 3465,12.5 µg/mL
same,MIC,[1]; clinical isolate GN 3481,3.13 µg/mL
same,MIC,[1]; clinical isolate GN 3611,25 µg/mL
same,MIC,[1]; clinical isolate K-1,1.56 µg/mL
same,MIC,[1]; clinical isolate K-2,1.56 µg/mL
same,MIC,[1]; clinical isolate K-3,25 µg/mL
same,MIC,[1]; clinical isolate K-4,12.5 µg/mL
same,MIC,[2],3.13 µg/mL
same,MIC,[3]; clinical isolate F-1,3.13 µg/mL
same,MIC,[3]; clinical isolate F-2,1.56 µg/mL
same,MIC,[3]; clinical isolate F-3,1.56 µg/mL
same,MIC,[3]; clinical isolate F-4,3.13 µg/mL
same,MIC,[3]; clinical isolate F-5,25 µg/mL
same,MIC,[3]; clinical isolate MS 8588,3.13 µg/mL
same,MIC,[3]; clinical isolate MS 8596,1.56 µg/mL
same,MIC,[3]; clinical isolate MS 8619,1.56 µg/mL
same,MIC,[3]; clinical isolate MS 8684,1.56 µg/mL
same,MIC,[3]; clinical isolate MS 8713,3.13 µg/mL
same,MIC,[4],< 1.57 µg/mL
same,MIC,[5],< 1.57 µg/mL
same,MIC,[6],100 µg/mL
same,MIC,[7],> 200 µg/mL
same,MIC,[8],< 1.57 µg/mL
same,MIC,[9],1.56 µg/mL
same,MIC,[10]; clinical isolate GN 917,1.56 µg/mL
same,MIC,[10]; clinical isolate GN 4081,3.13 µg/mL
same,MIC,[10]; clinical isolate GN 4117,3.13 µg/mL
same,MIC,[11]; clinical isolate GN 82,> 200 µg/mL
same,MIC,[11]; clinical isolate GN 163,> 200 µg/mL
same,MIC,[11]; clinical isolate GN 221,> 200 µg/mL
same,MIC,[11]; clinical isolate GN 244,> 200 µg/mL
same,MIC,[11]; clinical isolate GN 376,> 200 µg/mL
same,MIC,[11]; clinical isolate GN 383,> 200 µg/mL
same,MIC,[11]; clinical isolate GN 1035,> 200 µg/mL
same,MIC,[11]; clinical isolate GN 1091,> 200 µg/mL
same,MIC,[11]; clinical isolate GN 2565,> 200 µg/mL
same,MIC,[11]; clinical isolate GN 2987,> 200 µg/mL
same,MIC,[11]; clinical isolate S-1,> 200 µg/mL
same,MIC,[11]; clinical isolate S-2,> 200 µg/mL
same,MIC,[11]; clinical isolate S-3,> 200 µg/mL
same,MIC,[11]; clinical isolate S-4,> 200 µg/mL
same,MIC,[12],50 µg/mL
same,MIC,[13],50 µg/mL
"Cc1nnc(SCC2=C(C(=O)O)N3C(=O)C(NC(=O)C(NC(=O)N4CCN(C)C(=O)C4=O)c4ccccc4)C3SC2)s1 (single isomer, unassigned) [compound 62]",MIC,[1]; clinical isolate GN 3435,6.25 µg/mL
same,MIC,[1]; clinical isolate GN 3452,6.25 µg/mL
same,MIC,[1]; clinical isolate GN 3465,25 µg/mL
same,MIC,[1]; clinical isolate GN 3481,6.25 µg/mL
same,MIC,[1]; clinical isolate GN 3611,200 µg/mL
same,MIC,[1]; clinical isolate K-1,6.25 µg/mL
same,MIC,[1]; clinical isolate K-2,12.5 µg/mL
same,MIC,[1]; clinical isolate K-3,200 µg/mL
same,MIC,[1]; clinical isolate K-4,12.5 µg/mL
same,MIC,[2],6.25 µg/mL
same,MIC,[3]; clinical isolate F-1,3.13 µg/mL
same,MIC,[3]; clinical isolate F-2,0.78 µg/mL
same,MIC,[3]; clinical isolate F-3,1.56 µg/mL
same,MIC,[3]; clinical isolate F-4,1.56 µg/mL
same,MIC,[3]; clinical isolate F-5,12.5 µg/mL
same,MIC,[3]; clinical isolate MS 8588,1.56 µg/mL
same,MIC,[3]; clinical isolate MS 8596,0.78 µg/mL
same,MIC,[3]; clinical isolate MS 8619,0.78 µg/mL
same,MIC,[3]; clinical isolate MS 8684,1.56 µg/mL
same,MIC,[3]; clinical isolate MS 8713,1.56 µg/mL
same,MIC,[4],< 0.1 µg/mL
same,MIC,[5],0.79 µg/mL
same,MIC,[6],1.57 µg/mL
same,MIC,[7],50 µg/mL
same,MIC,[8],3.13 µg/mL
same,MIC,[9],3.13 µg/mL
same,MIC,[10]; clinical isolate GN 917,6.25 µg/mL
same,MIC,[10]; clinical isolate GN 4081,12.5 µg/mL
same,MIC,[10]; clinical isolate GN 4117,25 µg/mL
same,MIC,[11]; clinical isolate GN 82,100 µg/mL
same,MIC,[11]; clinical isolate GN 163,50 µg/mL
same,MIC,[11]; clinical isolate GN 221,50 µg/mL
same,MIC,[11]; clinical isolate GN 244,100 µg/mL
same,MIC,[11]; clinical isolate GN 376,100 µg/mL
same,MIC,[11]; clinical isolate GN 383,100 µg/mL
same,MIC,[11]; clinical isolate GN 1035,200 µg/mL
same,MIC,[11]; clinical isolate GN 1091,100 µg/mL
same,MIC,[11]; clinical isolate GN 2565,100 µg/mL
same,MIC,[11]; clinical isolate GN 2987,50 µg/mL
same,MIC,[11]; clinical isolate S-1,200 µg/mL
same,MIC,[11]; clinical isolate S-2,200 µg/mL
same,MIC,[11]; clinical isolate S-3,200 µg/mL
same,MIC,[11]; clinical isolate S-4,200 µg/mL
same,MIC,[12],3.13 µg/mL
same,MIC,[13],6.25 µg/mL
